In US20190269784A1, “Selective Inhibitors of the Polo-Like Kinase 1 Polo-Box Domain” (UNIVERSITY OF SOUTH CAROLINA, priority 2018, published 2019):
Where “and” joins values, the source holds several entries; their conditions need not be identical. Identical values can stand only once. Like-named read-outs stand apart in the source and are kept apart here. Square brackets hold non-standard residues; d marks the D form. Ends that are not written are not given here. Peptide text beside a SMILES is read from it. * marks the point of attachment. Benzoyl(4-octyl) = CCCCCCCCc1ccc(C(=O)*)cc1; pT = C[C@@H](OP(=O)(O)O)[C@H](N)C(=O)O; X2 = O=C(c1ccc(OCc2ccc(F)cc2)cc1)*; Benzoyl(4-OH) = O=C(c1ccc(O)cc1)*

Experiments:
PLK3 PBD = target: T1, PLK3 PBD (Homo sapiens, UniProt Q9H4B4); assay: Fluorescence polarization competitive binding assay, PLK3 PBD; conditions: for PLK3 PBD binding, in words: FP assay
T1 construct: A similar assay format was developed for the PLK3 PBD
T1 sequence (Q9H4B4 335-646 limits assumed): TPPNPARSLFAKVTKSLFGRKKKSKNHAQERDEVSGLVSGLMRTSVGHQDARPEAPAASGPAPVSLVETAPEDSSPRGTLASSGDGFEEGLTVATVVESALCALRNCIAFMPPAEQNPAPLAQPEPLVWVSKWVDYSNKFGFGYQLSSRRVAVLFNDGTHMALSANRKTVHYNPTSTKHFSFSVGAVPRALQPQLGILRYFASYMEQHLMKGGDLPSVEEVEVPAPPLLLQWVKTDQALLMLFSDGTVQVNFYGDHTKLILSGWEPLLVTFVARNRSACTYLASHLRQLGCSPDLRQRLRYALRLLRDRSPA
Protocol: The binding of fluorescein-labelled tracer peptides used for both assays was determined to see if there was a difference in affinity for their respective PBD. A titration curve for each tracer/PLK PBD complex was generated to determine Kd values for each and therefore compare the relative binding affinities.
(§1) The affinities of the peptides for PLK1 and PLK3 were measured by plotting the loss of polarization against increasing concentration of competitor peptide through use of an optimized assay and selectivity determination.

PLK1 PBD = PLK1 PBD (Homo sapiens, UniProt P53350); assay: Fluorescence polarization competitive binding assay, PLK1 PBD; conditions: for Selectivity Index: (IC50 PLK3 PBD/IC50 PLK1 PBD)×5, PLK1 over PLK3
Protocol: According to the assay, binding of a fluorescent tracer peptide to a protein increased polarization of the emitted fluorescence. […] The ability of test molecules to bind to the PBD was quantitated by a reduction in mP values that occurred as the tracer was displaced from the PBD, and plotted to calculate as an IC50 value.
as §1

[1] = target: polo-box domain (PBD) of polo-like kinase 1 (PLK1) (UniProt P53350); assay: fluorescence polarization competition, displacement of tracer peptide from PLK1 PBD
[2] = target: polo-box domain (PBD) of polo-like kinase 1 (PLK1) (UniProt P53350); assay: fluorescence polarization competition on PLK1 PBD
[3] = target: polo-box domain (PBD) of polo-like kinase 1 (PLK1) (UniProt P53350); assay: from FP IC50s; PLK1 PBD against PLK3 PBD
[4] = target: polo-box domain (PBD) of polo-like kinase 1 (PLK1) (UniProt P53350); assay: from FP IC50s, (IC50 PLK3 PBD/IC50 PLK1 PBD)x5; PLK1 PBD against PLK3 PBD
[5] = target: T2, polo-box domain (PBD) of polo-like kinase 1 (PLK1) (UniProt P53350 367-603, limits assumed); assay: fluorescence polarization competition, displacement of tracer peptide from PLK1 PBD
T2 construct: domain: polo-box domain (PBD); the background speaks of the four known human PLKs and the residue numbers (L491) fit human PLK1; also called PLK1 PBD; PBD of PLK1
Description: According to the assay, binding of a fluorescent tracer peptide to a protein increased polarization of the emitted fluorescence. […] The ability of test molecules to bind to the PBD was quantitated by a reduction in mP values that occurred as the tracer was displaced from the PBD, and plotted to calculate as an IC₅₀ value.

[6] = competition with fluorescent tracer peptide, read-out: PLK3 PBD FP IC50
[7] = competition with fluorescent tracer peptide, read-out: PLK1 PBD FP IC50
[8] = PLK3 PBD FP IC50, competition with fluorescent tracer peptide

PLK1 PBD, sequence (P53350 367-603 limits assumed): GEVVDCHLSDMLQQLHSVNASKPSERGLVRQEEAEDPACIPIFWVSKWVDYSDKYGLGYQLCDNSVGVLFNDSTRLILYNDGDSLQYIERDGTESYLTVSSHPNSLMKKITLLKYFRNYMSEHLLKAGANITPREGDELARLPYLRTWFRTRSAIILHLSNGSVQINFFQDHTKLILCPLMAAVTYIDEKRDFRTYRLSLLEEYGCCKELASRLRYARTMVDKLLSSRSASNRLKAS
T2 sequence (P53350 367-603 limits assumed): as above
polo-box domain (PBD) of polo-like kinase 1 (PLK1) (UniProt P53350), sequence (P53350 367-603 limits assumed): as above

CC[C@H](C)[C@H](NC(=O)[C@H](C)NC(=O)[C@@H](NC(=O)[C@H](CO)NC(=O)[C@H](Cc1c[nH]cn1)NC(=O)[C@H](CC(C)C)NC(=O)[C@@H]1CCCN1C(C)=O)[C@@H](C)OP(=O)(O)O)C(=O)O [SEQ ID NO: 4, Ac-PLHS[pT]Al] (Ac-PLHS[pT]AI-OH; C-terminus assumed)
IC50 (PLK3 PBD; [6]): 270 µM
Selectivity Index (PLK1 PBD): 21,133
IC50 (PLK1 PBD; [7]): 0.064 µM

CC(C)C[C@H](NC(=O)CNC(=O)[C@H](CC(N)=O)NC(=O)[C@@H]1CCCN1C(=O)[C@@H](NC(=O)[C@H](CO)NC(=O)[C@H](CS)NC(=O)[C@H](CC(C)C)NC(=O)[C@@H](N)CC(C)C)[C@@H](C)O)C(=O)O [SEQ ID NO: 2, reference compound] (H-LLCSTPNGL-OH)
IC50 (PLK1 PBD): > 600 µM

4-butyl benzamide FLIP, 4-butyl S[pT]PNGL (SEQ ID NO: 11) (peptide)
IC50 [1]: 2.5 µM
fold potency increase against Compound #9 [2]: 2 fold
Selectivity Index [3]: > 1200

Compound No. 14, 4-octyl S[pT]A (SEQ ID NO: 12) (peptide)
IC50 [1]: 15.2 µM
fold weaker affinity against Compound No. 15 [2]: 40 fold
Selectivity Index [3]: 66

CC(C)C[C@H](NC(=O)CNC(=O)[C@H](CC(N)=O)NC(=O)[C@@H]1CCCN1C(=O)[C@@H](NC(=O)[C@H](CO)NC(=O)c1ccc(OCc2ccc(F)cc2)cc1)[C@@H](C)OP(=O)(O)O)C(=O)O [Compound 5] (X2-S[pT]PNGL-OH; C-terminus assumed)
IC50 (PLK1 PBD): 5 µM
fold reduction of PLK1 PBD binding relative to parent compound (PLK1 PBD): ~24 fold

CC(C)C[C@H](NC(=O)CNC(=O)[C@H](CC(N)=O)NC(=O)[C@@H]1CCCN1C(=O)[C@@H](NC(=O)[C@H](CO)NC(=O)c1ccc(O)cc1)[C@@H](C)OP(=O)(O)O)C(=O)O [Compound 1] ({Benzoyl(4-OH)}-S[pT]PNGL-OH)
PLK1 PBD binding, in words (PLK1 PBD; FP assay): completely inactive

CC(C)C[C@H](NC(=O)CNC(=O)[C@H](CC(N)=O)NC(=O)[C@@H]1CCCN1C(=O)[C@@H](NC(=O)[C@H](CO)NC(=O)[C@H](CS)NC(=O)[C@H](CC(C)C)NC(=O)[C@@H](N)CC(C)C)[C@@H](C)OP(=O)(O)O)C(=O)O [SEQ ID NO: 1, LLCS[pT]PNGL, reference compound] (H-LLCS[pT]PNGL-OH; N-terminus and C-terminus assumed)
PLK3 PBD binding, in words (PLK3 PBD): no PLK3 PBD binding apparent at the maximum concentration tested

CCCCCCCCc1ccc(C(=O)N[C@@H](CO)C(=O)N[C@H](C(=O)N[C@@H](C)C(=O)O)[C@@H](C)OP(=O)(O)O)cc1 [Compound 14]
IC50 (PLK3 PBD; [6]): 202 ± 51.3 µM
fold reduction of PLK1 PBD binding relative to parent compound (PLK1 PBD): ~40 fold
Selectivity Index (PLK1 PBD): 66

Compound No. 13, 4-octyl S[pT]PNGL (SEQ ID NO: 11) (peptide)
IC50 [1]: 0.36 µM
Selectivity Index [3]: 2070

GPLATS[pT]PKNG (SEQ ID NO: 7)
Selectivity Index [4]: 1930

CCCCCCCCc1ccc(C(=O)N[C@@H](CO)C(=O)N[C@H](C(=O)N2CCC[C@H]2C(=O)N[C@@H](CC(N)=O)C(=O)NCC(=O)N[C@@H](CC(C)C)C(=O)O)[C@@H](C)OP(=O)(O)O)cc1 [Compound 13] ({Benzoyl(4-octyl)}-S[pT]PNGL-OH; C-terminus assumed)
IC50 (PLK3 PBD; [8]): 149 ± 38.2 µM

CC(=O)N1CCC[C@H]1C(=O)N[C@@H](CC(C)C)C(=O)N[C@@H](Cc1c[nH]cn1)C(=O)N[C@@H](CO)C(=O)N[C@H](C(=O)N1CCC[C@H]1C(=O)N[C@@H](CC(N)=O)C(=O)NCC(=O)N[C@@H](CC(C)C)C(=O)O)[C@@H](C)OP(=O)(O)O [SEQ ID NO: 3, Ac-PLHS[pT]PNGL] (Ac-PLHS[pT]PNGL-OH; C-terminus assumed)
IC50 (PLK3 PBD; [6]): 164 µM
Selectivity Index (PLK1 PBD): 13,633
IC50 (PLK1 PBD; [7]): 0.06 µM

CC[C@H](C)[C@H](NC(=O)[C@H](C)NC(=O)[C@@H](NC(=O)[C@H](CO)NC(=O)[C@H](Cc1c[nH]cn1)NC(=O)[C@H](CC(C)C)NC(C)=O)[C@@H](C)OP(=O)(O)O)C(=O)O [SEQ ID NO: 5, Ac-LHS[pT]Al] (Ac-LHS[pT]AI-OH; C-terminus assumed)
PLK3 PBD binding, in words (PLK3 PBD): lost all detectable affinity
IC50 (PLK3 PBD; [8]): > 600 µM
IC50 (PLK1 PBD): 1.57 µM
Selectivity Index (PLK1 PBD): >1900

CC(C)C[C@H](NC(=O)CNC(=O)[C@H](CC(N)=O)NC(=O)[C@@H]1CCCN1C(=O)[C@@H](NC(=O)[C@H](CO)NC(=O)[C@@H](NC(=O)[C@H](C)NC(=O)[C@H](CC(C)C)NC(=O)[C@@H]1CCCN1C(=O)CN)[C@@H](C)O)[C@@H](C)OP(=O)(O)O)C(=O)O [SEQ ID NO: 8, GPLATS[pT]PNGL] (H-GPLATS[pT]PNGL-OH; N-terminus and C-terminus assumed)
fold reduction of PLK3 PBD binding relative to parent compound (PLK3 PBD): 3 fold
IC50 (PLK3 PBD; [8]): 6.3 µM
IC50 (PLK1 PBD): 0.011 µM
fold reduction of PLK1 PBD binding relative to parent compound (PLK1 PBD): 2 fold
Selectivity Index (PLK1 PBD): 2864

Ac-PLHS[pT]PKNG (SEQ ID NO: 9)
fold weakened affinity against SEQ ID NO: 8 [2]: 2 fold
Selectivity Index [4]: 20900

CC(=O)N1CCC[C@H]1C(=O)N[C@@H](CC(C)C)C(=O)N[C@@H](Cc1c[nH]cn1)C(=O)N[C@@H](CO)C(=O)N[C@H](C(=O)N1CCC[C@H]1C(=O)N[C@@H](CCCCN)C(=O)N[C@@H](CC(N)=O)C(=O)NCC(=O)O)[C@@H](C)OP(=O)(O)O [SEQ ID NO: 9, Ac-PLHS[pT]PKNG] (Ac-PLHS[pT]PKNG-OH; C-terminus assumed)
IC50 (PLK3 PBD; [6]): 134 µM
Selectivity Index (PLK1 PBD): 20,906
IC50 (PLK1 PBD; [7]): 0.032 µM

Ac-PLHS[pT]A (SEQ ID NO: 6)
IC50 [1]: 0.46 µM
fold reduction in binding against SEQ ID NO: 4 [2]: 7 fold
Selectivity Index [4]: > 6500

CC(C)C[C@H](NC(=O)[C@@H]1CCCN1C(=O)CN)C(=O)N[C@@H](C)C(=O)N[C@H](C(=O)N[C@@H](CO)C(=O)N[C@H](C(=O)N1CCC[C@H]1C(=O)N[C@@H](CCCCN)C(=O)N[C@@H](CC(N)=O)C(=O)NCC(=O)O)[C@@H](C)OP(=O)(O)O)[C@@H](C)O [SEQ ID NO: 7, GPLATS[pT]PKNG, reference compound] (H-GPLATS[pT]PKNG-OH; N-terminus and C-terminus assumed)
IC50 (PLK3 PBD; [8]): 2.2 µM
IC50 (PLK1 PBD): 0.0057 µM
Selectivity Index (PLK1 PBD): ~2000 and 1928

Ac-PLHS[pT]AI (SEQ ID NO: 4)
Selectivity Index [4]: 21100

Ac-PLHS[pT]PNGL (SEQ ID NO: 3)
fold increase against SEQ ID NO: 1 [2]: 3 fold
Selectivity Index [4]: 13600

Compound No. 12, 4-hexyl S[pT]PNGL (SEQ ID NO: 11) (peptide)
IC50 [1]: 1 µM
Selectivity Index [3]: > 2830

B1: Compound #2, methoxy derivative FLIP (R1 = OCH3) (peptide)
peptide: {4‑methoxybenzoyl}-S[pT]PNGL
modifications: also: further groups not given here
notes: see m14; also called Compound No. 2
IC50 [5]: 21.9 µM

B2: Ac-LHS[pT]AI (SEQ ID NO: 5) (peptide)
peptide: Ac-LHS[pT]AI
fold loss of binding against SEQ ID NO: 4 [2]: 24 fold
Selectivity Index [4]: > 1900

B3: Compound #7, thiomethyl FLIP (R1 = SCH3) (peptide)
peptide: {4‑(methylthio)benzoyl}-S[pT]PNGL
modifications: also: further groups not given here
notes: see m14; also called Compound No. 7
IC50 [5]: 3 µM

B4: Compound #3 FLIP (R1 = OCH2CH3) (peptide)
peptide: {4‑ethoxybenzoyl}-S[pT]PNGL
modifications: also: further groups not given here
notes: see m14; also called Compound No. 3
IC50 [5]: 15.9 µM

B5: Compound #6, 4-phenethoxy FLIP (R1 = OCH2CH2C6H5) (peptide)
peptide: {4‑phenethoxybenzoyl}-S[pT]PNGL
modifications: also: further groups not given here
notes: see m14; also called Compound No. 6
IC50 [5]: 4.5 µM
